Assay results published in paper PMC5581232 (European journal of medicinal chemistry, 2017).
Read-outs that look alike come from different tables or passages of the source.

Columns and labels:
[1] = tested on: HBeAg secretion (HBV cccDNA formation); assay: HBeAg reporter cell-based assay; parameters: species or system Hepatitis B virus; settings: for Effect on secretion of HBeAg (in words): 3TC and ETV at 10 μM
HBV Cp149 = HBV Cp149 (Hepatitis B virus genotype D subtype ayw, UniProt P03146); assay: HBV Cp149 capsid formation by negative-stain electron microscopy; assay type: biochemical; settings: 20 μM, 1 hr pre-incubation, assembly induced with NaCl overnight
HBV = assay: Anti-HBV activity: HBV DNA replication; assay type: cell-based, Hepatitis B virus; settings: for Anti-HBV activity (in words): HepAD38 cells
[2] = Hepatitis B virus, HePAD38, read-out: HBeAg Secretion EC90, HepAD38 cells, ELISA
[3] = read-out: HBeAg Secretion EC90, HepAD38 cells, ELISA

HBV Cp149, sequence (P03146 1-149): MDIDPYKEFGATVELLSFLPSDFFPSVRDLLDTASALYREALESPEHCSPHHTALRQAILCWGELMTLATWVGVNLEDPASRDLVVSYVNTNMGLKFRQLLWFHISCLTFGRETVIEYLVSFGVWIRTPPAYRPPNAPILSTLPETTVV

Row | SMILES | EC90 [1, 2] [nM] | EC90 [1, 3] [nM] | Effect on HBV Cp149 capsid formation (morphology, negative-stain TEM) (HBV Cp149) | Effect on secretion of HBeAg (in words) ([1]; HepAD38 cells) | Anti-HBV activity (in words) (HBV) | also measured
1 | O=C(Nc1ccc(F)c(F)c1)c1cc(S(=O)(=O)N2CC(F)(F)C2)ccc1F [Compound 4f, 5-((3,3-Difluoroazetidin-1-yl)sulfonyl)-N-(3,4-difluorophenyl)-2-fluorobenzamide] | 3000 to 4000 | 3200 ± 10 | a large number of incomplete, but typically spherical capsids aggregated into clusters |  |  | 
2 | CCOC(=O)C1=C(CN2CCOCC2)NC(c2nccs2)=NC1c1ccc(F)cc1Br (stereo not shown) [GLS-4] | 2000 | 1900 ± 40 |  | reduced secretion of HBeAg |  | 
3 | CC(C)(NC(=O)c1cccc(S(=O)(=O)NC2CCCC2)c1)c1ccc(F)c(F)c1 [Compound 21, 3-(N-Cyclopentylsulfamoyl)-N-(2-(3,4-difluorophenyl)propan-2-yl)benzamide] |  |  | properly formed HBV Cp149 capsids |  | complete loss of activity | 
4 | C=C1[C@H](CO)[C@@H](O)C[C@@H]1n1cnc2c(=O)[nH]c(N)nc21.O [ETV, entecavir] |  |  |  | no effect |  | 
5 | Nc1ccn([C@@H]2CS[C@H](CO)O2)c(=O)n1 [Compound 3TC, lamivudine, reference compound] |  |  |  | no effect |  | EC50 (HBV; Hepatitis B virus, HePAD38, read-out: HBV DNA – Extracellular EC50): 40 ± 30 nM
6 | O=C(NC1(c2ccc(F)c(F)c2)CC1)c1cc(S(=O)(=O)NC2CCCC2)ccc1F [Compound 19, 5-(N-Cyclopentylsulfamoyl)-N-(1-(3,4-difluorophenyl)cyclopropyl)-2-fluorobenzamide] |  |  |  |  | complete loss of activity | 
7 | O=C(Nc1cc(S(=O)(=O)NC2CCCC2)ccc1F)c1ccc(F)c(F)c1 [Compound 16, N-(5-(N-Cyclopentylsulfamoyl)-2-fluorophenyl)-3,4-difluorobenzamide] |  |  |  |  | complete loss of activity | 
8 | O=C(Nc1ccc(F)c(F)c1)c1cc(S(=O)(=O)NC2CCCC2)ccc1F [Compound 4a, 5-(N-Cyclopentylsulfamoyl)-N-(3,4-difluorophenyl)-2-fluorobenzamide] | 3000 to 4000 | 4600 ± 2000 | form greater numbers of disfigured circular assemblies |  |  | 
